For the experiment, the target named is T1, PTP1B (Homo sapiens, UniProt P18031).
T1 sequence (P18031 1-435): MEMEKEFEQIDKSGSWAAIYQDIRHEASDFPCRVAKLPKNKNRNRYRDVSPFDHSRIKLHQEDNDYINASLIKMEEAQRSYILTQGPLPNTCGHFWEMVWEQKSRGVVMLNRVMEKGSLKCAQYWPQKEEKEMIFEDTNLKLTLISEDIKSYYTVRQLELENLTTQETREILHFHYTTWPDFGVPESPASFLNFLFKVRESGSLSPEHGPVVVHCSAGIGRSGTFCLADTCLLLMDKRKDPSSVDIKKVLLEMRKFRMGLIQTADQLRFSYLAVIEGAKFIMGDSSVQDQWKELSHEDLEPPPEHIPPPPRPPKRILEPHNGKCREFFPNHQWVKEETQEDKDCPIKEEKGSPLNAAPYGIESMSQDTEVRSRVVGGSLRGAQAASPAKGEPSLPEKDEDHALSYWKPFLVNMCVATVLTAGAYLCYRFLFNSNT
As to the kind of experiment: PTP1B labeling by probe compound (streptavidin immunoblot). In kind it is biochemical. The text has this: FIG. 1b was visualized by immunoblotting analysis (streptavidin) after transferring the reaction products onto a nitrocellulose membrane. […] Since the probe compounds themselves are also the substrates of the corresponding PTPs, the results clearly indicate that the newly developed latent trapping unit well mimics the phosphorotyrosine residue of the natural substrate. […] In the absence of PTPs, they underwent hydrolysis slowly and the purity remained greater than 90% even after 1 hr (as determined by HPLC).
To test if probe compounds 30a-c could differentiate PTPs from other phosphatases, we conducted labeling experiments on nine phosphatases, including five PTPs, alkaline phosphatase (ALP), PTEN (dephosphorylating the phosphatidylinositol 3,4,5-trisphosphate), and two serine/threonine phosphatases (PPP1CA and PPM1A).
In order to further study how well probe compounds 30a-c could differentiate between the various PTPs, we compared the labeling intensities on five PTPs (PTP1B, SHP2, TCPTP, VHR, and PTPPEST) with those obtained from probe 1 (LCL2). When the intensities of the probe compounds 30a-c-labeled bands in each set of experiments were normalized relative to that of a probe 1-labeled band, we were able to establish a quantitative comparison of their labeling preference (as shown in FIGS. 4a to 4e). […] Of the five PTPs tested, the substrate specificities of PTP1B, TCPTP, and SHP2 were better studied than those of VHR and PTP-PEST. […] The trend of substrate preference obtained from this study was similar to those determined by other methods. We have also compared the labeling intensity data for the other two PTPs, VHR (a dual-specificity phosphatase) and PTP-PEST (a classical PTP). […] This provides evidence to support the concept that probe compounds with added amino acid residues flanking the latent trapping device were able to influence their target specificities.
(In western blotting, separated proteins are transferred to a membrane and probed.)

In the case of `CC(C)CC(NC(=O)C(Cc1ccc(OP(=O)(O)O)c(CF)c1)NC(=O)C(CCC(=O)O)NC(=O)CCC(=O)NCCOCCOCCNC(=O)CCCCC1SC[C@H]2NC(=O)N[C@@H]12)C(N)=O` (stereo partly drawn) [compound 30b], under “Na3VO4 present in the incubation mixture”, the “biotinylated adduct (labeling of PTP1B) with phosphatase inhibitor present” value is listed as “no biotinylated adduct was observed”. Moreover, where the note is “PTP1B and TCPTP, conclusion from Na3VO4 control”, the “activity dependence of labeling of PTPs” value was “activity dependent”. Moreover, the “biotinylated protein bands (labeling of PTP1B)” value (immunoblotting analysis (streptavidin), FIG. 1b) is on record as “Intense biotinylated protein bands were observed”.

Values taken from patent US20100317831A1, “PROBE COMPOUNDS FOR PROTEIN TYROSINE PHOSPHATASE (PTP) AND PRECURSORS THEREOF” (NATIONAL TAIWAN UNIVERSITY, priority 2009, published 2010).
